What all share (assay): relative viability (nuclei count vs DMSO), 5 days (fraction); higher = more cells survive
Compound in assay [1]: C=CC(=O)N1CCC[C@@H](n2nc(-c3ccc(Oc4ccccc4)cc3)c3c(N)ncnc32)C1 [Ibrutinib] + Cc1cc(Nc2cc(N3CCN(C)CC3)nc(Sc3ccc(NC(=O)C4CC4)cc3)n2)n[nH]1 [Tozasertib] (partner 0.1 µM)
In short, it runs like this:
(§1)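 Relative viability was taken as the ratio of nuclei in treated wells to nuclei in vehicle wells. Lung cancer cell lines in 1536-well plates received compounds by pin tool one day after seeding, either one drug alone or a fixed anchor-drug dose plus five library-drug doses (not always all listed) in √10 steps. Nuclei were counted on 4× images after 5 days of treatment, and values are medians of duplicate plates.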

Compound in assay [2]: C=CC(=O)Nc1cc(-n2c(=O)ccc3cnc4ccc(-c5ccc(NS(C)(=O)=O)cc5)cc4c32)ccc1C [BMX-IN-1] + CC(=O)Nc1cccc(-n2c(=O)n(C3CC3)c(=O)c3c(Nc4ccc(I)cc4F)n(C)c(=O)c(C)c32)c1 [Trametinib] (partner 0.02 µM)
In short, it runs like this:
as §1

Compound in assay [3]: C=CC(=O)Nc1cc(-n2c(=O)ccc3cnc4ccc(-c5ccc(NS(C)(=O)=O)cc5)cc4c32)ccc1C [BMX-IN-1] + Nc1nc2[nH]cc(CCc3ccc(C(=O)N[C@@H](CCC(=O)O)C(=O)O)cc3)c2c(=O)[nH]1 [Pemetrexed] (partner 0.2 µM)
In short, it runs like this: as §1

Compound in assay [4]: C=CCc1cccc(/C=N/NC(=O)CN2CCN(Cc3ccccc3)CC2)c1O [PAC-1] + Cc1nc(Nc2ncc(C(=O)Nc3c(C)cccc3Cl)s2)cc(N2CCN(CCO)CC2)n1 [Dasatinib] (partner 0.075 µM)
In a few lines:
as §1

The record followed here is the supplement of paper PMC10307832.

On to NCI-H3122, for which the relative viability in assay [1] (first compound 0.005 µM) is 0.507; in assay [1] (first compound 0.01581 µM), 0.395; in assay [1] (first compound 0.05 µM), 0.343; in assay [1] (first compound 0.1581 µM) it was 0.415; in assay [1] (first compound 0.5 µM), 0.46; in assay [2] (first compound 0.02 µM) it was 0.228. Besides, the relative viability in assay [2] (first compound 0.2 µM) is 0.253; in assay [2] (first compound 0.6325 µM), 0.238; in assay [2] (first compound 2 µM) it was 0.272; in assay [3] (first compound 0.02 µM), 0.203; in assay [3] (first compound 0.2 µM), 0.206; in assay [3] (first compound 0.6325 µM), 0.19. The relative viability in assay [3] (first compound 2 µM) stood at 0.19; in assay [4] (first compound 0.02 µM) it was 0.828; in assay [4] (first compound 0.06325 µM) it was 0.811; in assay [4] (first compound 0.2 µM) it was 0.857; in assay [4] (first compound 2 µM), 0.764.
In the case of PC-3 [JPC-3], the relative viability in assay [1] (first compound 0.005 µM) came out at 0.872; in assay [1] (first compound 0.01581 µM), 0.772; in assay [1] (first compound 0.05 µM) it was 0.873; in assay [1] (first compound 0.1581 µM) it was 0.99; in assay [1] (first compound 0.5 µM), 0.681; in assay [2] (first compound 0.02 µM), 0.697. The relative viability was 0.712 in assay [2] (first compound 0.2 µM); 0.738 in assay [2] (first compound 0.6325 µM); 0.677 in assay [2] (first compound 2 µM); 0.933 in assay [3] (first compound 0.02 µM); 1.28 in assay [3] (first compound 0.2 µM); 1.44 in assay [3] (first compound 0.6325 µM). In addition, the relative viability was 1.04 in assay [3] (first compound 2 µM); 1.06 in assay [4] (first compound 0.02 µM); 0.986 in assay [4] (first compound 0.06325 µM); 0.981 in assay [4] (first compound 0.2 µM); 0.975 in assay [4] (first compound 2 µM).
With PC-14, the relative viability in assay [1] (first compound 0.005 µM) is 0.646; in assay [1] (first compound 0.01581 µM), 0.536; in assay [1] (first compound 0.05 µM) it was 0.568; in assay [1] (first compound 0.1581 µM) it was 0.556; in assay [1] (first compound 0.5 µM), 0.452; in assay [2] (first compound 0.02 µM), 0.814. Moreover, the relative viability amounted to 1.01 in assay [2] (first compound 0.2 µM); 0.927 in assay [2] (first compound 0.6325 µM); 0.793 in assay [2] (first compound 2 µM); 0.121 in assay [3] (first compound 0.02 µM); 0.134 in assay [3] (first compound 0.2 µM); 0.145 in assay [3] (first compound 0.6325 µM). In addition, the relative viability in assay [3] (first compound 2 µM) was 0.134; in assay [4] (first compound 0.02 µM), 0.248; in assay [4] (first compound 0.06325 µM) it was 0.265; in assay [4] (first compound 0.2 µM), 0.279; in assay [4] (first compound 2 µM) it was 0.249.
RERF-LC-KJ: the relative viability came to 0.59 in assay [1] (first compound 0.005 µM); 0.5 in assay [1] (first compound 0.01581 µM); 0.467 in assay [1] (first compound 0.05 µM); 0.537 in assay [1] (first compound 0.1581 µM); 0.544 in assay [1] (first compound 0.5 µM); 0.967 in assay [2] (first compound 0.02 µM). Also, the relative viability was found to be 0.897 in assay [2] (first compound 0.2 µM); 0.867 in assay [2] (first compound 0.6325 µM); 0.909 in assay [2] (first compound 2 µM); 0.468 in assay [3] (first compound 0.02 µM); 0.448 in assay [3] (first compound 0.2 µM); 0.48 in assay [3] (first compound 0.6325 µM). In addition, the relative viability in assay [3] (first compound 2 µM) turned out to be 0.456; in assay [4] (first compound 0.02 µM), 0.826; in assay [4] (first compound 0.06325 µM) it was 0.812; in assay [4] (first compound 0.2 µM) it was 0.775; in assay [4] (first compound 2 µM), 0.786.
On to SK-LU-1, for which the relative viability is 0.363 in assay [1] (first compound 0.005 µM); 0.252 in assay [1] (first compound 0.01581 µM); 0.399 in assay [1] (first compound 0.05 µM); 0.347 in assay [1] (first compound 0.1581 µM); 0.33 in assay [1] (first compound 0.5 µM); 0.381 in assay [2] (first compound 0.02 µM). The relative viability is 0.522 in assay [2] (first compound 0.2 µM); 0.481 in assay [2] (first compound 0.6325 µM); 0.403 in assay [2] (first compound 2 µM); 1.13 in assay [3] (first compound 0.02 µM); 1.27 in assay [3] (first compound 0.2 µM); 0.962 in assay [3] (first compound 0.6325 µM). Also, the relative viability in assay [3] (first compound 2 µM) stood at 0.95; in assay [4] (first compound 0.02 µM), 0.208; in assay [4] (first compound 0.06325 µM), 0.173; in assay [4] (first compound 0.2 µM) it was 0.185; in assay [4] (first compound 2 µM) it was 0.181.
Consider SW 900, for which the relative viability in assay [1] (first compound 0.05 µM) turned out to be 0.663; in assay [1] (first compound 0.1581 µM), 0.627; in assay [1] (first compound 0.5 µM), 0.59; in assay [2] (first compound 0.02 µM), 1.12; in assay [2] (first compound 0.2 µM), 0.831; in assay [2] (first compound 0.6325 µM), 0.816. For the same cell line, the relative viability in assay [2] (first compound 2 µM) was 0.807; in assay [3] (first compound 0.02 µM), 0.529; in assay [3] (first compound 0.2 µM), 0.5; in assay [3] (first compound 0.6325 µM), 0.485; in assay [3] (first compound 2 µM), 0.425; in assay [4] (first compound 0.02 µM), 0.766. Also, the relative viability in assay [4] (first compound 0.06325 µM) worked out at 0.467; in assay [4] (first compound 0.2 µM) it was 0.435; in assay [4] (first compound 2 µM) it was 0.927.
On to SW 1573, for which the relative viability in assay [1] (first compound 0.005 µM) came to 0.189; in assay [1] (first compound 0.01581 µM) it was 0.169; in assay [1] (first compound 0.05 µM), 0.195; in assay [1] (first compound 0.1581 µM) it was 0.174; in assay [1] (first compound 0.5 µM), 0.184; in assay [2] (first compound 0.02 µM), 0.657. The relative viability in assay [2] (first compound 0.2 µM) amounted to 0.719; in assay [2] (first compound 0.6325 µM), 0.624; in assay [2] (first compound 2 µM), 0.507; in assay [3] (first compound 0.02 µM), 0.901; in assay [3] (first compound 0.2 µM), 1.02; in assay [3] (first compound 0.6325 µM), 0.931. For the same cell line, the relative viability in assay [3] (first compound 2 µM) is 0.666; in assay [4] (first compound 0.02 µM) it was 0.537; in assay [4] (first compound 0.06325 µM), 0.561; in assay [4] (first compound 0.2 µM), 0.44; in assay [4] (first compound 2 µM) it was 0.52.
With UMC-11, the relative viability in assay [1] (first compound 0.005 µM) came out at 0.194; in assay [1] (first compound 0.01581 µM) it was 0.203; in assay [1] (first compound 0.05 µM), 0.203; in assay [1] (first compound 0.1581 µM), 0.203; in assay [1] (first compound 0.5 µM), 0.188; in assay [2] (first compound 0.02 µM), 0.831. Moreover, the relative viability in assay [2] (first compound 0.2 µM) was 0.727; in assay [2] (first compound 0.6325 µM) it was 0.763; in assay [2] (first compound 2 µM), 0.738; in assay [3] (first compound 0.02 µM) it was 0.92; in assay [3] (first compound 0.2 µM), 0.792; in assay [3] (first compound 0.6325 µM), 0.754. For the same cell line, the relative viability in assay [3] (first compound 2 µM) turned out to be 0.754; in assay [4] (first compound 0.02 µM), 0.483; in assay [4] (first compound 0.06325 µM), 0.484; in assay [4] (first compound 0.2 µM), 0.462; in assay [4] (first compound 2 µM), 0.437.
